In patent US11331299B2, “Medicinal use of serrulatane diterpenes” (The University of Sydney, priority 2016, dated 2022):
Values joined by “and” are separate entries in the source; they are usually repeats but may differ in a detail not shown here. Equal values may be shown once. Read-outs that look alike come from different tables or passages of the source.

What was measured:
[1] = test system: human CD4-positive T-cells; test: T-cell viability/proliferation (assay number 1299); assay type: cell-based
[2] = biological target: receptors (Bioprint panel) (Homo sapiens, UniProt P35372); test: biochemical; assay type: binding; details: OPIOD & OPIOID-LIKE mu (MOP) (h) (agonist radioligand); 10 μM; read-out: % Inhibition of Control Specific Binding
[3] = biological target: receptors (Bioprint panel) (Homo sapiens, UniProt Q9UKP6); test: biochemical; assay type: binding; details: read-out: % Inhibition of Control Specific Binding
[4] = biological target: receptors (Bioprint panel) (Homo sapiens, UniProt Q15722); test: biochemical; assay type: binding; details: read-out: % Inhibition of Control Specific Binding
[5] = biological target: receptors (Bioprint panel) (Homo sapiens, UniProt Q01959); test: biochemical; assay type: binding; details: dopamine transporter (h) (antagonist radioligand); 10 μM; read-out: % Inhibition of Control Specific Binding
[6] = biological target: receptors (Bioprint panel) (Homo sapiens, UniProt P14867); test: biochemical; assay type: binding; details: GABAA1 (h) (alpha 1, beta 2, gamma 2) (agonist radioligand); 10 μM; read-out: % Inhibition of Control Specific Binding
[7] = biological target: receptors (Bioprint panel) (Homo sapiens, UniProt P25101); test: biochemical; assay type: binding; details: […] (h) (agonist radioligand); 10 μM; read-out: % Inhibition of Control Specific Binding
[8] = biological target: receptors (Bioprint panel) (Homo sapiens, UniProt P11229); test: biochemical; assay type: binding; details: […] M1 (h) (antagonist radioligand); 10 μM; read-out: % Inhibition of Control Specific Binding
[9] = biological target: receptors (Bioprint panel) (Homo sapiens, UniProt P28223); test: biochemical; assay type: binding; details: read-out: % Inhibition of Control Specific Binding
[10] = biological target: receptors (Bioprint panel) (Homo sapiens, UniProt P08908); test: biochemical; assay type: binding; details: read-out: % Inhibition of Control Specific Binding
[11] = biological target: receptors (Bioprint panel) (Homo sapiens, UniProt P43681); test: biochemical; assay type: binding; details: NICOTINIC […] N neuronal alpha 4beta 2 (h) (agonist radioligand); 10 μM; read-out: % Inhibition of Control Specific Binding
[12] = biological target: receptors (Bioprint panel) (Homo sapiens, UniProt P08172); test: biochemical; assay type: binding; details: […] M2 (h) (antagonist radioligand); 10 μM; read-out: % Inhibition of Control Specific Binding
[13] = biological target: receptors (Bioprint panel) (Homo sapiens, UniProt P43116); test: biochemical; assay type: binding; details: PROSTANOID EP2 (h) (agonist radioligand); 10 μM; read-out: % Inhibition of Control Specific Binding
[14] = biological target: receptors (Bioprint panel) (Homo sapiens, UniProt P43088); test: biochemical; assay type: binding; details: […] (h) (agonist radioligand); 10 μM; read-out: % Inhibition of Control Specific Binding
[15] = assay type: in vivo, female NOD/SCID mice; details: for Body Weight: single animals No. 1-3
Protocol: Two studies were conducted by Eurofins Panlabs Taiwan, Ltd. The purpose of Study 1 was to assess the possible adverse effects of Compound 1 alone or in combination with […] in Maximum Tolerated Dose (MTD) assay. The purpose of Study 2 is a follow-up study performed at escalating doses.
Compound 1 was dissolved in 10% Tween 20/90% PBS or 20% Tween 20/80% PBS for IP injections. Compound 1 was administrated alone or in combination with […] at a dosing volume of 10 or 20 mL/kg for each substance.
For mortality, test substance (Compound 1; 100 mg/kg) alone or in combination with […] (8.75, 17.5, or 35 mg/kg; given on the same day) was administered to mice by IP injection to evaluate the possible adverse effects in MTD assay. […]. […]
A follow-up MTD study was performed to evaluate for the adverse effects of the test substance (Compound 1) at escalating doses alone or in combination with […] (17.5 mg/kg) via IP in a group of 3 female NOD/SCID mice at 6-7 weeks of age.
For mortality, treatment with Compound 1 at escalating doses (200 mg/kg) alone and in combination with […] (17.5 mg/kg; given on the same day) were administered by IP injection to a group of 3 female NOD/SCID mice at 6-7 weeks of age. The mortality was monitored at 30 min and again at 3, 24, 48 and 72 hours after compound administrations.
For body weight, test substance (Compound 1) at escalating doses (200 mg/kg) alone or in combination with […] (17.5 mg/kg; given on the same day) were administered by IP injection to a group of 3 female NOD/SCID mice at 6-7 weeks of age. The body weight of each animal was measured and recorded daily for 3 days.
For behavioral, symptomatic i.e. neurological and autonomic signs, test substance (Compound 1; 200 mg/kg) alone or in combination with […] (17.5 mg/kg; given on the same day) were administered by IP injection to a group of 3 female NOD/SCID mice at 6-7 weeks of age. The animals were then observed for presences of acute toxic symptoms and autonomic effects for 30 min after the first dose.

ASH1L = ASH1L (Homo sapiens, UniProt Q9NR48); details: read-out: Reference: IC50; cited from earlier work
[16] = 200 mg/kg IP, individual mice No. 1-3, 30 min after first dose, Study 2 Round 1
Throughout, for Autonomic signs: Death: key: −: no effects; ±: Slight to moderate effects; +: Severe effects; ↓: Low; D: Deep.
Throughout, for Autonomic signs: Dec. Palpebral Size: key: −: no effects; ±: Slight to moderate effects; +: Severe effects; ↓: Low; D: Deep.
Throughout, for Autonomic signs: Diarrhea: key: −: no effects; ±: Slight to moderate effects; +: Severe effects; ↓: Low; D: Deep.
Throughout, for Autonomic signs: Inc. Palpebral Size: key: −: no effects; ±: Slight to moderate effects; +: Severe effects; ↓: Low; D: Deep.

Chain of receptors (Bioprint panel) (Homo sapiens, UniProt Q9UKP6) (Q9UKP6 whole entry): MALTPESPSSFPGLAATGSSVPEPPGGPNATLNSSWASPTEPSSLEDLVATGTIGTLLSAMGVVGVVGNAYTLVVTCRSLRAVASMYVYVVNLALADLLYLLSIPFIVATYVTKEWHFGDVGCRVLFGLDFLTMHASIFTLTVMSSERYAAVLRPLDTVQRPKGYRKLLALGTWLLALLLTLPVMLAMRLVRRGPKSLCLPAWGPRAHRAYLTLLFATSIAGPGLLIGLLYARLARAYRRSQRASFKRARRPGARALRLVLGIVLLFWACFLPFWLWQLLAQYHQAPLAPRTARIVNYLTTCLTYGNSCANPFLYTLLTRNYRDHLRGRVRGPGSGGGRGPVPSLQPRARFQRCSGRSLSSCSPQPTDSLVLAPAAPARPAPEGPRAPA
Chain of receptors (Bioprint panel) (Homo sapiens, UniProt P43088) (P43088 whole entry): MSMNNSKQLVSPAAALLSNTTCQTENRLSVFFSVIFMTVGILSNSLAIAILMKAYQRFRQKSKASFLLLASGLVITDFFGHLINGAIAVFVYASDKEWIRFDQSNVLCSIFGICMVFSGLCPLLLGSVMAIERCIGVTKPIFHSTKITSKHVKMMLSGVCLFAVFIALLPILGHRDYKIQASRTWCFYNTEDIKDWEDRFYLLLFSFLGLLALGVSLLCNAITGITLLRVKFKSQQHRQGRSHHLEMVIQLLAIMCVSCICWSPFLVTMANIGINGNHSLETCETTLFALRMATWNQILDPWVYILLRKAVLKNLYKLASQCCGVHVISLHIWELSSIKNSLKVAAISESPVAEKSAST
Chain of receptors (Bioprint panel) (Homo sapiens, UniProt P28223) (P28223 whole entry): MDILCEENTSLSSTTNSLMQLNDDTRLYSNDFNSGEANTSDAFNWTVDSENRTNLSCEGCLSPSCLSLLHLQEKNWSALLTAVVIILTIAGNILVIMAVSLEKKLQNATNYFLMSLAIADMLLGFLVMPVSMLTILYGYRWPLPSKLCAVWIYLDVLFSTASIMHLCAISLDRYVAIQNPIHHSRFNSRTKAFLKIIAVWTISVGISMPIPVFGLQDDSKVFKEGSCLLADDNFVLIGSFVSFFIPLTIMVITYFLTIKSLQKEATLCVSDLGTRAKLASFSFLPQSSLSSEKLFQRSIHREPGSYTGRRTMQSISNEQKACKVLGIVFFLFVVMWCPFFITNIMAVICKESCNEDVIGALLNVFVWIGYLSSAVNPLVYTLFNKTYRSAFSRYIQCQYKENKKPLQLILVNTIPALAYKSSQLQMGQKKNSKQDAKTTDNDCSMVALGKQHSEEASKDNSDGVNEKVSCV
Chain of receptors (Bioprint panel) (Homo sapiens, UniProt P35372) (P35372 whole entry): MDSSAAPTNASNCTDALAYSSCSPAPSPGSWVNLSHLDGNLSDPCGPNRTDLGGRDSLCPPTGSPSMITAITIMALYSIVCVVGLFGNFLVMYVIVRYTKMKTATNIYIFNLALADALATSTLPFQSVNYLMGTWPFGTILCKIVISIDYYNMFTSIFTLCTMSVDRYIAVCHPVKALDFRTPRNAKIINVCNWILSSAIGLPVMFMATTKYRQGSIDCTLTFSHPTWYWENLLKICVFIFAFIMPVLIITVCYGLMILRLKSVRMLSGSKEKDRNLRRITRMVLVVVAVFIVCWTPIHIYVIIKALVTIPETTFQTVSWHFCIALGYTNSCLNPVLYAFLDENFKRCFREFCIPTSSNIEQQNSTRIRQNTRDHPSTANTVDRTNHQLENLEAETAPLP
Chain of receptors (Bioprint panel) (Homo sapiens, UniProt P08172) (P08172 whole entry): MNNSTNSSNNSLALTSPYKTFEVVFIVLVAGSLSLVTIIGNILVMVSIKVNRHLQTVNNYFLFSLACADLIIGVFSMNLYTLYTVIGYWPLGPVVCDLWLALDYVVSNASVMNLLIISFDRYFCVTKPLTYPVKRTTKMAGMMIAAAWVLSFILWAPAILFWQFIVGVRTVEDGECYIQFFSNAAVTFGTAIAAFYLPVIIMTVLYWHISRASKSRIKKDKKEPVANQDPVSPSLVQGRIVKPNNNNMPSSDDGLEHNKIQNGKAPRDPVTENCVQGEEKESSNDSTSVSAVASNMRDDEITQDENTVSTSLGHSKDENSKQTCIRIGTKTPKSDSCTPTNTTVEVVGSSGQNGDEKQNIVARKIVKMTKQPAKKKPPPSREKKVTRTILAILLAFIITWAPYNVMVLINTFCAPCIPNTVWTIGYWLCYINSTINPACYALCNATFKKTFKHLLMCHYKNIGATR
Chain of receptors (Bioprint panel) (Homo sapiens, UniProt P08908) (P08908 whole entry): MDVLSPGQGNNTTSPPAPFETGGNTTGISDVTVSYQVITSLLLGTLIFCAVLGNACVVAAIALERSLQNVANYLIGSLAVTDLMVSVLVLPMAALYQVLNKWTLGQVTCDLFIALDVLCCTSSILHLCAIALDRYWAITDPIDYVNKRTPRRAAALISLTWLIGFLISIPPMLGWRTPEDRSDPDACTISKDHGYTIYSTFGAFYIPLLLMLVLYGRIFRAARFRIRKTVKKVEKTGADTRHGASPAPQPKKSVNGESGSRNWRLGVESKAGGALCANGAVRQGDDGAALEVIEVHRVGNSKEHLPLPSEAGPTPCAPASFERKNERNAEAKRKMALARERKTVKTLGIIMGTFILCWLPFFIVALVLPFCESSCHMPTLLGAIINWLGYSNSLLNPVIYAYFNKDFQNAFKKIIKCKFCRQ
Chain of receptors (Bioprint panel) (Homo sapiens, UniProt P14867) (P14867 28-456): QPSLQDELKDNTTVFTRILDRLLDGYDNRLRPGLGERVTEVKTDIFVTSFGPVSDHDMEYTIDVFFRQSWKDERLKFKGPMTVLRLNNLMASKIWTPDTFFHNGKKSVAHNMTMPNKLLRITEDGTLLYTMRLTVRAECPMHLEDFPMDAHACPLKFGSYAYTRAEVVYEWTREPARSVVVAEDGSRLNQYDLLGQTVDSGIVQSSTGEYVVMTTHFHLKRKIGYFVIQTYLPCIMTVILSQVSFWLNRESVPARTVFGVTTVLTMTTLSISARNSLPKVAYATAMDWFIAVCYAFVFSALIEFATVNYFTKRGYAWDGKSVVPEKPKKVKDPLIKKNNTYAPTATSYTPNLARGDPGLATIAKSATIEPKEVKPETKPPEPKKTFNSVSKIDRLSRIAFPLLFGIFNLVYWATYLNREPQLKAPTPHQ
Chain of receptors (Bioprint panel) (Homo sapiens, UniProt P43116) (P43116 whole entry): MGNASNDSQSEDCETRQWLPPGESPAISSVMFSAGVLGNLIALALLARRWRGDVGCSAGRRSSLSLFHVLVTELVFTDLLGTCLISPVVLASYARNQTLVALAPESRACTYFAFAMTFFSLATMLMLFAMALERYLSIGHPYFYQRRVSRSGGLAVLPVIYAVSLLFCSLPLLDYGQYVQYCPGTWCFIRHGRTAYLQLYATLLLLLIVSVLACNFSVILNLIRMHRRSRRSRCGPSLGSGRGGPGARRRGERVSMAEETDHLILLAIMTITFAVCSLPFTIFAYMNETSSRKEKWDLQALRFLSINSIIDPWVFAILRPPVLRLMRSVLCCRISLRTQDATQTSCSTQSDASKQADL
Chain of receptors (Bioprint panel) (Homo sapiens, UniProt Q01959) (Q01959 whole entry): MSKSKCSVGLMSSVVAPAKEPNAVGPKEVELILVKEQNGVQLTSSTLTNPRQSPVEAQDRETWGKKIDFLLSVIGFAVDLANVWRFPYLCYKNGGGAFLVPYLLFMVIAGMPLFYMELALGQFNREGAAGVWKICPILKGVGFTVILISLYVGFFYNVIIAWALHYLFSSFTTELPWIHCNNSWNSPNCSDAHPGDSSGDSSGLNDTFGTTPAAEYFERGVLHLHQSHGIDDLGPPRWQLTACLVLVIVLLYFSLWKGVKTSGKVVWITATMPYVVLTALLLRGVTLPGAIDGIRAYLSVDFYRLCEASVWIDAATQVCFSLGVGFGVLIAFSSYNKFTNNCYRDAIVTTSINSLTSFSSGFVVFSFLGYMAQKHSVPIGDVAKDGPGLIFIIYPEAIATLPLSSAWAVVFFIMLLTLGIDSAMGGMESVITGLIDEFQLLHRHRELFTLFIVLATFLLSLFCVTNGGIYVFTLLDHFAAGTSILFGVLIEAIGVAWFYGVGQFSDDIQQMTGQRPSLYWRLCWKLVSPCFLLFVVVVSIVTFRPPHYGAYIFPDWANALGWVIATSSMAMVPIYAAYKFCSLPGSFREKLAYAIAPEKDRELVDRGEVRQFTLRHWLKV
Chain of receptors (Bioprint panel) (Homo sapiens, UniProt Q15722) (Q15722 whole entry): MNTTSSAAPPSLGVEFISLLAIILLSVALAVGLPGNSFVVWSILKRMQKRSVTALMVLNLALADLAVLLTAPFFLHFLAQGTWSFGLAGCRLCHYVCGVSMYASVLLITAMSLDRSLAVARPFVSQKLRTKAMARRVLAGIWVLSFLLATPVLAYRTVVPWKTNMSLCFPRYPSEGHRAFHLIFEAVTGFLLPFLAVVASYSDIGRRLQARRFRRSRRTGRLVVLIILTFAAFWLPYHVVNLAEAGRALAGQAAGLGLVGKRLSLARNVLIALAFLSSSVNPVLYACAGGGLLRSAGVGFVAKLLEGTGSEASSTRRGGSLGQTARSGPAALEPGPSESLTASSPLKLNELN
Chain of receptors (Bioprint panel) (Homo sapiens, UniProt P25101) (P25101 21-427): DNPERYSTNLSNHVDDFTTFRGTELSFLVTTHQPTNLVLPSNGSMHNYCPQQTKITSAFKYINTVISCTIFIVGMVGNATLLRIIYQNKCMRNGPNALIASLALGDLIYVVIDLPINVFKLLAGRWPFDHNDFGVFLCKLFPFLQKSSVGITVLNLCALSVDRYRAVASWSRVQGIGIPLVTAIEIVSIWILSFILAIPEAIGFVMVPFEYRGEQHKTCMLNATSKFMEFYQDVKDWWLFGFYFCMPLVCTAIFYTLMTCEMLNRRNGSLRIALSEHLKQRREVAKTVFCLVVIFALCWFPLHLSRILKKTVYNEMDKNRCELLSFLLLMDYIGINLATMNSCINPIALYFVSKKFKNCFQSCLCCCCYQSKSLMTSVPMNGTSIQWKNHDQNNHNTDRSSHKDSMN

Compound: CC(C)=CCC[C@H](CO)[C@@H]1CC[C@@H](C)c2c1cc(C)c(O)c2O [Compound 1, 7,8,18-trihydroxyserrulat-14-ene]
- Emax ([1]; read-out: Inhibition of cell proliferation, Max Effect): 123%
- EC50 ([1]; read-out: Inhibition of cell proliferation, Rel EC50): 0.587 µM
- inhibition at 10 µM [2]: 43%
- inhibition at 10 µM [3]: 46%
- inhibition at 10 µM [4]: 27%
- inhibition at 10 µM [5]: 63%
- inhibition at 10 µM [6]: -36%
- inhibition at 10 µM [7]: 6%
- inhibition at 10 µM [8]: 8%
- inhibition at 10 µM [9]: 9%
- inhibition at 10 µM [10]: -18%
- inhibition at 10 µM [11]: -3%
- inhibition at 10 µM [12]: 1%
- inhibition at 10 µM [13]: 53%
- inhibition at 10 µM [14]: 54%
- Autonomic signs: Body Temperature [15, 16]: ↓+
- Autonomic signs: Death [15, 16]: −
- Autonomic signs: Dec. Palpebral Size [15, 16]: −
- Autonomic signs: Diarrhea [15, 16]: −
- Autonomic signs: Inc. Palpebral Size [15, 16]: −
- Autonomic signs: Lacrimation [15, 16]: −
- Autonomic signs: Others [15, 16]: −
- Autonomic signs: Piloerection [15, 16]: −
- Autonomic signs: Salivation F.V. [15, 16]: −
- Autonomic signs: Skin Color [15, 16]: −
- adverse effects ([15]; Study 1, Compound 1 100 mg/kg IP alone): did not elicit significant adverse effects
- survival ([15]; Study 1, Compound 1 100 mg/kg IP alone, 72-hour observation period): All test animals survived
- Response (death/test) ([15]; Study 1, IP, 100 mg/kg, 30 min): 0/3
- Response (death/test) ([15]; Study 1, IP, 100 mg/kg, 3 hrs): 0/3
- Response (death/test) ([15]; Study 1, IP, 100 mg/kg, Day 1): 0/3
- Response (death/test) ([15]; Study 1, IP, 100 mg/kg, Day 2): 0/3
- Response (death/test) ([15]; Study 1, IP, 100 mg/kg, Day 3): 0/3
- autonomic sign ([15]; Study 2, 200 mg/kg IP, 30 min after dose): Hypothermia
- Response (death/test) ([15]; Study 2, IP, 200 mg/kg, 30 min): 0/3
- Response (death/test) ([15]; Study 2, IP, 200 mg/kg, 3 hrs): 0/3
- Body Weight ([15]; Study 2, IP, 200 mg/kg, Day 0, 200 mg/kg): 22 g and 21 g (2×)
- Response (death/test) ([15]; Study 2, IP, 200 mg/kg, Day 1): 1/3
- Body Weight ([15]; Study 2, IP, 200 mg/kg, Day 1): 21 g
- Response (death/test) ([15]; Study 2, IP, 200 mg/kg, Day 2): 3/3
- Response (death/test) ([15]; Study 2, IP, 200 mg/kg, Day 3): 3/3
- B.W. ([15]; Study 2 Round 1, signs table, IP, 200 mg/kg, animals No. 1-3): 22 g and 21 g

Compound: Nc1ncnc2c1ncn2[C@@H]1O[C@H](CSCC[C@H](N)C(=O)O)[C@@H](O)[C@H]1O [SAH]
- IC50 (ASH1L): 9.1 µM
